Key:
[1] = target: T1, murine Abcg2 (Mus musculus, UniProt Q7TMS5); assay: Milk secretion experiment in lactating wild-type and Abcg2−/− female mice; assay type: in vivo; design: from tissue; host or cells: whole animal: wild-type vs Abcg2-/- mice, >99% FVB/N background; conditions: lactating female mice, 30 min after 10 mg/kg i.v.
T1 sequence (Q7TMS5 1-657): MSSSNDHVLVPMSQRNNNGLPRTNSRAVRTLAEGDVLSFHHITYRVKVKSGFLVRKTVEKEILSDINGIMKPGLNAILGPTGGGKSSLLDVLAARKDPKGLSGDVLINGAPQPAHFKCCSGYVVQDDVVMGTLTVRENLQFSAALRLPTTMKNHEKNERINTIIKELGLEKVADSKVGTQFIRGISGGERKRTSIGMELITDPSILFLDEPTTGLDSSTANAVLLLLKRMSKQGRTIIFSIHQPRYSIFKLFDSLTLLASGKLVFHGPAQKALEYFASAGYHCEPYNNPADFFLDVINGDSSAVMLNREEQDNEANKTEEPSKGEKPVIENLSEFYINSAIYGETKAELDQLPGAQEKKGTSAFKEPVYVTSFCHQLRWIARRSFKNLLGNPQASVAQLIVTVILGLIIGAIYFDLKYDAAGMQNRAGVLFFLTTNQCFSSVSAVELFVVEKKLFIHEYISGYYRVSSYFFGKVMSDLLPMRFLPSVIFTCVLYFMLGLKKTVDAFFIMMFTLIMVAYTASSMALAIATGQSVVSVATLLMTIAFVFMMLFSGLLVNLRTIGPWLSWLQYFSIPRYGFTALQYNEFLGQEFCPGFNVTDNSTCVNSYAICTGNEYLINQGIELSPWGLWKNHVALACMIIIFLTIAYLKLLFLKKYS
Method: All in vivo experiments were carried out using wild-type and Abcg2^−/− mice aged between 8 and 17 weeks, all of >99% FVB/N genetic background, generated and gently supplied by A. H. Schinkel (Netherlands Cancer Institute). Mice were housed and handled complying with institutional and ARRIVE guidelines and European legislation (EU Directive 2010/63/EU for animal experiments). Additionally, experimental procedures were approved by the Animal Care and Use Committee of the University of León and the Junta de Castilla y León (ULE_011_2019).
Pups of approximately 10 days old were separated from their mothers (wild-type (n = 10) and Abcg2^−/− (n = 11) female mice) 3 h before beginning the experiment. Milk secretion experiments were performed as previously described. Nitroxynil solution was prepared by diluting Distomicide® (250 mg/mL) commercial solution in saline and administered at a dose of 150 μL/30 g bw into the tail vein under anesthesia with isoflurane. […]
Plasma, milk and tissue samples from each animal were individually processed and analyzed without pooling, while samples from transport assays were not processed. […]
(§1) Waters 2695 separation module and Waters 2998 UV photodiode array detector set at 270 nm were used for samples analysis. […] Limit of detection (LOD) and quantification (LOQ) were calculated as previously described. […]

[2] = design: method as in PMID 7180778; conditions: cited from earlier work
[3] = Transepithelial transport assay in parental MDCK-II monolayers; assay type: in vitro ADME, canine; conditions: dog, nitroxynil 10 µM, no Ko143, read-out: Relative efflux transport ratio (BA/AB)
Method: Parental Madin–Darby canine kidney epithelial cells (MDCK–II) and their subclones transduced with murine (mAbcg2) and human (hABCG2) variants of ABCG2 were kindly provided by Dr. A. H. Schinkel (Netherlands Cancer Institute). Transduced MDCK–II cells with the ovine (oABCG2) and bovine (bABCG2) variants were previously generated by our group. Cells were cultured as described elsewhere.
Transepithelial transport assays were carried out as previously described with minor variations, using Hanks’ balanced salt solution (Sigma-Aldrich) supplemented with HEPES (25 mM), with or without Ko143 (1 μM), and containing or not nitroxynil 10 μM. […] At the end of the experiment, confluence of the monolayer was measured with the previously described Lucifer Yellow permeability test, with minor modifications. The appearance of nitroxynil in the opposite side of the well was measured by HPLC as later described. Active transport was expressed as relative efflux transport ratio (apically directed transport percentage divided by the basolaterally directed translocation percentage) at 4 h and referred to the initial concentration. […]
as §1

- Milk concentration, fold higher in wild-type compared with Abcg2−/− [1]: 1.9 fold
- Milk-to-plasma ratio, fold higher in wild-type compared with Abcg2−/− [1]: 2.1 fold
- efflux ratio at 4 h, 10 µM [3]: 1.04 ± 0.03
SMILES: N#Cc1cc(I)c(O)c([N+](=O)[O-])c1 [nitroxynil]
- Time after treatment at which residues have been found in tissues [2]: ≤ 90 days
